Measured values from US9896442B2, “Antifungal treatment” (Wisconsin Alumni Research Foundation, priority 2010, dated 2018).

How the values were obtained:
Aspergillus fumigatus = assay: Agar disk diffusion; format: cell-based; settings: disks containing 1 μg of test compound; FIG. 4
Protocol: Small molecule activity against the fungal pathogens Candida albicans and Aspergillus fumigatus was evaluated using an agar disk diffusion assay. Yeast (1×10^4) from an overnight culture of C. albicans was suspended in 600 μl of top agar (1% yeast extract (ThermoFisher), 2% peptone (ThermoFisher), 2% dextrose (Sigma), and 0.5% agar (Fisher)). This suspension was spread and allowed to solidify on 5 ml of base agar (YPD media containing 2% agar) in the well of a 6-well plate. Disks (6 mm AA, Whatman Inc., Piscataway, N.J., Cat#2017-006) were aseptically placed on a sterile Petri dish lid. Compounds selected from stage II (1 μg total) were each suspended in 100% dimethyl sulfoxide (DMSO) to a total volume of 5 μl, added to separate disks, and allowed to dry for five minutes. Fludioxonil (Sigma) and DMSO-only disks served as positive and negative controls, respectively. Disks were placed into separate wells and incubated at room temperature for 48 hours. Antifungal activity was determined based on the size of the zone of inhibition of C. albicans growth.
Activity against A. fumigatus was determined following the aforementioned disk diffusion assay. The protocol only differed in that 6.0×10^5 conidia were used instead of yeast, and the plates were incubated at 37° C. for 48 hours instead of room temperature (FIG. 4).

Hik1 Saccharomyces = Hik1 Saccharomyces reporter strain growth assay (small molecule screen); format: cell-based; settings: FIG. 2
From the text: To identify putative antifungals that act directly or indirectly through histidine kinase homologs of Drk1, we used a high throughput growth assay that uses a yeast reporter strain expressing a heterologous two-component sensor kinase (Hik1) to identify compounds that target the kinase and inhibit/kill the yeast. Hik1 and Drk1 are very closely related having near 80% amino acid sequence identity (FIG. 1). The Saccharomyces reporter contained an episomal plasmid with the hybrid histidine kinase Hik1 under the control of the galactose promoter (8). The Saccharomyces strain was provided by the Osada lab from RIKEN (Institute of Physical and Chemical Research, 2-1 Hirosawa, Wako, Saitama, 351-0198, Japan). It was used for screening initially. […]

C. krusei = assay: Microbroth dilution (MIC), CLSI M27; format: cell-based; settings: FIG. 5D
Protocol: (§1) Clinical and Laboratory Standards Institute (CLSI) protocol M27 was used to quantify the minimum inhibitory concentration (MIC) of compounds 13 and 33 against yeast fungal pathogens (13). Briefly, compounds were solubilized in 100% DMSO and serially diluted two-fold in a 96 well plate in 100 μl of RPMI medium. A 100 μl aliquot of RPMI medium containing 3×10^3 yeast/ml of an overnight culture was then added to each well. Medium, medium+yeast, and medium+yeast+DMSO wells were prepared as controls. Each well was prepared in triplicate. The plates were incubated at 35° C. for 48 hours. The MIC concentration was defined as the concentration at which no growth was visible by eye and the results verified by plating on YPD agar. The experiment was performed in duplicate. MIC concentrations were also defined against filamentous fungi using the CLSI protocol M38 (14). This protocol only differed from M27 in that 100 μl of medium containing 4×10^5 spores/ml were added instead of yeast (FIG. 5A-I).

C. gattii = assay: Microbroth dilution (MIC), CLSI M27; format: cell-based; settings: FIG. 5G
Protocol: as §1

C. lusitaniae = assay: Microbroth dilution (MIC), CLSI M27; format: cell-based; settings: FIG. 5C
Protocol: as §1

Candida albicans = assay: Microbroth dilution (MIC), CLSI M27; format: cell-based; settings: FIG. 5A
Protocol: as §1

Cryptococcus neoformans = assay: Microbroth dilution (MIC), CLSI M27; format: cell-based; settings: FIG. 5F
Protocol: as §1

C. glabrata = assay: Microbroth dilution (MIC), CLSI M27; format: cell-based; settings: FIG. 5E
Protocol: as §1

[1] = tested on: wild type Aspergillus fumigatus; assay: Microbroth dilution (MIC), CLSI M38; format: cell-based; settings: FIG. 5H
Protocol: as §1

Candida albicans biofilm = assay: In vitro biofilm drug synergy (checkerboard, XTT); format: cell-based; settings: for Synergy with Fluconazole by fractional inhibitory concentration (FIC): FIC from EC25, values ≦0.5 indicate synergy, FIG. 9; for growth reduction: alone and in combination
Protocol: Candida biofilms were formed in 96-well flat-bottom polystyrene plates (Fischer) as described previously ([…], Crawford K, Andes D R. Optimizing a Candida Biofilm Microtiter Plate Model for Measurement of Antifungal Susceptibility by XTT Assay. J. Clin. Microbiol. 2011 Jan., 2). Cells from an overnight culture grown in YPD shaking at 37° C. were enumerated by hemocytometer and suspended in RPMI-MOPS (Fisher) at a concentration of 10^6 cells/ml. A 100 μl of inoculum was added to each well of the plate. After 6 h incubation at 37° C., biofilms were gently washed twice with phosphate-buffered saline (PBS) to remove unattached cells. […] The ranges of concentrations of the fluconazole used included the standard doses given to humans. After overnight incubation at 37° C., biofilms were washed twice with PBS. Measurement of biofilm cell metabolic activity using the XTT reduction assay was performed as previously described ([…], Crawford K, Andes D R. Optimizing a Candida Biofilm Microtiter Plate Model for Measurement of Antifungal Susceptibility by XTT Assay. J. Clin. Microbiol. 2011 January, […], and Andes D. Synergistic Effect of Calcineurin Inhibitors and Fluconazole against Candida albicans Biofilms. Antimicrob Agents Chemother. 2008 March; 52(3): 1127-1132). Briefly, 90 μl of XTT at 1 mg/ml (Sigma) and 10 μl phenazine methosulfate at 320 μg/ml (Sigma) were added to each well, and the plate was incubated at 37° C. for 2 h. Viable cell number was assessed using the Absorbance at 492nm measured using an automated plate reader. Assays were performed in duplicate. The drug concentration resulting in a 25% reduction in optical density compared to the no-drug control wells was determined (EC25).

[2] = tested on: C. albicans resistant to conventional antifungals fluconazole and micafungin; assay: Microbroth dilution (MIC), CLSI M27; format: cell-based, Candida albicans; settings: FIG. 5B
Protocol: as §1

Aspergillus flavus = assay: Microbroth dilution against plant fungal pathogen; format: cell-based; settings: four isolates of A. flavus; FIG. 8
Protocol: as §1, with “M38” left out, “5A-I). […] Briefly, the MICs of compounds 13 and 33 were determined for each of the 4 isolates and compared with the conventional antifungal compound, voriconazole (available from Sigma). […]” for “5A-I).”

[3] = tested on: drug resistant A. fumigatus; assay: Microbroth dilution (MIC), CLSI M38; format: cell-based, Aspergillus fumigatus; settings: FIG. 5I
Protocol: as §1

Drk1 reporter strain = Drk1 reporter strain corroboration; format: cell-based
From the text: The results of the Hik1 histidine kinase reporter strain were corroborated with a Drk1 reporter strain, especially regarding compounds 13 and 33. Dr. David Andes, Dr. Nancy Keller, and the clinical microbiology laboratory at the University of Wisconsin Hospital provided the microbial strains used in this study (9-12).

[4] = tested on: Candida albicans biofilms; assay: Candida biofilm XTT reduction assay; format: cell-based; settings: 24 hours, FIG. 6
Protocol: Compound activity against C. albicans biofilm was assessed using a 96-well plate format as previously described by Nett et al. (15). Briefly, the C. albicans inoculum was prepared by diluting an overnight culture grown at 37° C. in RPMI-MOPS to 1×10^6 in RPMI-MOPS based on hemocytometer counts. An aliquot of 100 μl of the inoculum was added to each well of a 96-well flat-bottom polystyrene plate. After a 6-h incubation at 37° C., the wells were washed with phosphate-buffered saline (PBS) three times to remove any non-adherent cells. Fresh medium and fluconazole (Sigma), compound 13, and compound 33 were added and the plates were incubated at 37° C. for 24 hours. The XTT reduction assay was used to quantify the viability of biofilm cell as previously described (11). Briefly, 90 μl of (2,3)-bis-(2-Methoxy-4-Nitro-5-Sulphenyl)-(2H)-Tetrazolium-5-Carboxanilide (XTT; 1 mg/ml) (Sigma) and 10 μl phenazine methosulfate (320 μg/ml) (Sigma) were added to each well, and the plate was incubated for 2 h at 37° C. Cell viability was determined by measuring the absorbance at 490 nm using an automated plate reader. The biofilm growth assay was performed in duplicate.

[5] = FIG. 9A, compound 13 experiment: fluconazole at 62.5 ug/ml, 13 at 0.8 ug/ml
[6] = FIG. 9B, compound 33 experiment: fluconazole at 62.5 ug/ml, 33 at 1.6 ug/ml

Protocol for human red blood cells: Briefly, human red blood cells (RBCs) were isolated via FICOLL® (Sigma) gradient centrifugation and stored on ice. The RBCs were pelleted by centrifugation and washed with PBS a total of three times. A 2% RBC suspension in PBS was made and stored on ice for less than one hour. Drugs were suspended in DMSO and two-fold serial dilutions were prepared in PBS with a total volume of 100 μl in a 96-well round-bottom plate in triplicate. Wells containing PBS and Triton X-100 (Sigma) were used as negative and positive controls of hemolysis, respectively. A 100 μl aliquot of the 2% RBC suspension was then added to each well. The plate was then incubated at 37° C. for one hour. The plate was then centrifuged at 2,500 rpm for five minutes to pellet the RBCs. A 50 μl aliquot of the supernatant was transferred to a fresh 96-well plate, and absorbance at 405 nm was measured using an automated plate reader to quantify heme release.

SMILES	Inhibition of Aspergillus growth (zone of inhibition) (Aspergillus fumigatus)	Growth of Hik1 Saccharomyces on galactose with fludioxonil (Hik1 Saccharomyces; galactose (Hik1 induced))	Growth of Hik1 Saccharomyces in glucose with fludioxonil (Hik1 Saccharomyces; glucose, which does not induce Hik1)	Activity (MIC, cumulative inhibition) (C. krusei)	Activity (MIC, cumulative inhibition) (C. gattii)	Activity (MIC, cumulative inhibition) (C. lusitaniae)	Activity (MIC, cumulative inhibition) (Candida albicans)	Activity (MIC, cumulative inhibition) (Cryptococcus neoformans)	Activity (MIC, cumulative inhibition) (C. glabrata)	Activity (MIC, cumulative inhibition) [1]	Synergy with Fluconazole by fractional inhibitory concentration (FIC) (Candida albicans biofilm)	growth reduction (Candida albicans biofilm; [5])	Activity (MIC, cumulative inhibition) [2]	Cumulative inhibition of Aspergillus flavus (Aspergillus flavus)	Activity (MIC, cumulative inhibition) [3]	Hemolysis (heme release, absorbance at 405 nm) compared with amphotericin B (human red blood cells)	Hik1 reporter strain results corroborated with Drk1 reporter strain (Drk1 reporter strain)	growth reduction (Candida albicans biofilm; [6])	Concentration inhibiting Candida biofilm growth [4]
N#Cc1c[nH]cc1-c1cccc2c1OC(F)(F)O2 [fludioxonil]	created zones of inhibition	inhibited Saccharomyces growth	uninhibited																
O=[N+]([O-])c1ccc(/C=C/c2ccc([N+](=O)[O-])o2)cc1 [Compound 13]	inhibited growth			active	active	active	active	active	active	active	synergy	18%	active	inhibition	active	less hemolytic	corroborated		
CSc1nnc(Sc2ncc([N+](=O)[O-])s2)s1 [Compound 33]	inhibited growth			active	active	active	active	active	active	active	synergy		active	inhibition	active	less hemolytic	corroborated	approximately 9%	
C[C@@H]1[C@H](O)[C@@H](C)/C=C/C=C/C=C/C=C/C=C/C=C/C=C/[C@H](O[C@@H]2O[C@H](C)[C@@H](O)[C@H](N)[C@@H]2O)C[C@@H]2O[C@](O)(C[C@@H](O)C[C@@H](O)[C@H](O)CC[C@@H](O)C[C@@H](O)CC(=O)O[C@H]1C)C[C@H](O)[C@H]2C(=O)O [amphotericin B, reference compound]	created zones of inhibition																		
OC(Cn1cncn1)(Cn1cncn1)c1ccc(F)cc1F [fluconazole, reference compound]												15%						approximately 6%	> 1000 µg/mL
